Test: xn = mol fraction of the nth substance listed

CC(C)(C)N + O
Conditions	viscosity [mPa·s]
298 K, 101 kPa, x1 = 0.001	0.993
298 K, 101 kPa, x1 = 0.01	1.068
298 K, 101 kPa, x1 = 0.02	1.269
298 K, 101 kPa, x1 = 0.03	1.527
298 K, 101 kPa, x1 = 0.04	1.698
298 K, 101 kPa, x1 = 0.05	1.89
298 K, 101 kPa, x1 = 0.06	2.059
298 K, 101 kPa, x1 = 0.08	2.363
298 K, 101 kPa, x1 = 0.1	2.604
298 K, 101 kPa, x1 = 0.15	2.992
298 K, 101 kPa, x1 = 0.2	3.112
298 K, 101 kPa, x1 = 0.25	3.057
298 K, 101 kPa, x1 = 0.3	2.832
298 K, 101 kPa, x1 = 0.4	2.211
298 K, 101 kPa, x1 = 0.5	1.642
298 K, 101 kPa, x1 = 0.6	1.195
298 K, 101 kPa, x1 = 0.7	0.881
298 K, 101 kPa, x1 = 0.8	0.677
298 K, 101 kPa, x1 = 0.85	0.594
298 K, 101 kPa, x1 = 0.9	0.534
298 K, 101 kPa, x1 = 0.92	0.523
298 K, 101 kPa, x1 = 0.95	0.48
298 K, 101 kPa, x1 = 0.97	0.462
298 K, 101 kPa, x1 = 0.98	0.456
298 K, 101 kPa, x2 = 0.01	0.445
298.15 K, 101.33 kPa, x1 = 0.1001	2.654
298.15 K, 101.33 kPa, x1 = 0.2002	3.163
298.15 K, 101.33 kPa, x1 = 0.2998	2.906
298.15 K, 101.33 kPa, x1 = 0.3996	2.294
298.15 K, 101.33 kPa, x1 = 0.5	1.69
298.15 K, 101.33 kPa, x1 = 0.5999	1.229
298.15 K, 101.33 kPa, x1 = 0.6984	0.9094
298.15 K, 101.33 kPa, x1 = 0.7998	0.6936
298.15 K, 101.33 kPa, x1 = 0.9	0.5459
303 K, 101 kPa, x1 = 0.001	0.81
303 K, 101 kPa, x1 = 0.01	0.947
303 K, 101 kPa, x1 = 0.02	1.116
303 K, 101 kPa, x1 = 0.03	1.29
303 K, 101 kPa, x1 = 0.04	1.455
303 K, 101 kPa, x1 = 0.05	1.606
303 K, 101 kPa, x1 = 0.06	1.745
303 K, 101 kPa, x1 = 0.08	1.986
303 K, 101 kPa, x1 = 0.1	2.189
303 K, 101 kPa, x1 = 0.15	2.516
303 K, 101 kPa, x1 = 0.2	2.622
303 K, 101 kPa, x1 = 0.25	2.57
303 K, 101 kPa, x1 = 0.3	2.392
303 K, 101 kPa, x1 = 0.4	1.901
303 K, 101 kPa, x1 = 0.5	1.419
303 K, 101 kPa, x1 = 0.6	1.06
303 K, 101 kPa, x1 = 0.7	0.787
303 K, 101 kPa, x1 = 0.8	0.609
303 K, 101 kPa, x1 = 0.85	0.543
303 K, 101 kPa, x1 = 0.9	0.49
303 K, 101 kPa, x1 = 0.92	0.47
303 K, 101 kPa, x1 = 0.95	0.442
303 K, 101 kPa, x1 = 0.97	0.426
303 K, 101 kPa, x1 = 0.98	0.419
303 K, 101 kPa, x2 = 0.01	0.417
303.15 K, 101.33 kPa, x1 = 0.1001	2.222
303.15 K, 101.33 kPa, x1 = 0.2002	2.645
303.15 K, 101.33 kPa, x1 = 0.2998	2.422
303.15 K, 101.33 kPa, x1 = 0.3996	1.935
303.15 K, 101.33 kPa, x1 = 0.5	1.453
303.15 K, 101.33 kPa, x1 = 0.5999	1.076
303.15 K, 101.33 kPa, x1 = 0.6984	0.8077
303.15 K, 101.33 kPa, x1 = 0.7998	0.6226
303.15 K, 101.33 kPa, x1 = 0.9	0.5017
308 K, 101 kPa, x1 = 0.001	0.73
308 K, 101 kPa, x1 = 0.01	0.846
308 K, 101 kPa, x1 = 0.02	0.99
308 K, 101 kPa, x1 = 0.03	1.132
308 K, 101 kPa, x1 = 0.04	1.263
308 K, 101 kPa, x1 = 0.05	1.394
308 K, 101 kPa, x1 = 0.06	1.571
308 K, 101 kPa, x1 = 0.08	1.718
308 K, 101 kPa, x1 = 0.1	1.871
308 K, 101 kPa, x1 = 0.15	2.168
308 K, 101 kPa, x1 = 0.2	2.211
308 K, 101 kPa, x1 = 0.25	2.16
308 K, 101 kPa, x1 = 0.3	2.061
308 K, 101 kPa, x1 = 0.4	1.643
308 K, 101 kPa, x1 = 0.5	1.24
308 K, 101 kPa, x1 = 0.7	0.712
308 K, 101 kPa, x1 = 0.8	0.566
308 K, 101 kPa, x1 = 0.85	0.499
308 K, 101 kPa, x1 = 0.9	0.451
308 K, 101 kPa, x1 = 0.92	0.433
308 K, 101 kPa, x1 = 0.95	0.41
308 K, 101 kPa, x1 = 0.97	0.396
308 K, 101 kPa, x1 = 0.98	0.389
308 K, 101 kPa, x2 = 0.01	0.383
308.15 K, 101.33 kPa, x1 = 0.1001	1.888
308.15 K, 101.33 kPa, x1 = 0.2002	2.229
308.15 K, 101.33 kPa, x1 = 0.2998	2.058
308.15 K, 101.33 kPa, x1 = 0.3996	1.655
308.15 K, 101.33 kPa, x1 = 0.5	1.258
308.15 K, 101.33 kPa, x1 = 0.5999	0.9485
308.15 K, 101.33 kPa, x1 = 0.6984	0.726
308.15 K, 101.33 kPa, x1 = 0.7998	0.5736

— the CheMixHub viscosity set
